Laboratory results taken from US20110059909A1, “METHODS FOR TREATING INFLAMMATORY DISORDERS” (priority 2004, published 2011).

Tests used:
[1] = cited from earlier work
[2] = system: NF-κB; assay: NF-κB DNA binding, electrophoretic mobility shift assay; assay type: cell-based, rat
Experimental: Nuclear extracts from cells (1×10^7 cells) were prepared using a previously published method (Dignam et al., 1983) with slight modifications. Cells were harvested, washed twice with ice-cold TBS, and lysed in 400 μl of buffer A containing 10 mM KCl, 2 mM MgCl2, 0.5 mM dithiothreitol, protease inhibitor cocktail (Sigma), and 0.1% Nonidet P-40 in 10 mM HEPES, pH 7.9 for 10 min on ice. Following centrifugation at 5,000×g for 10 min, the pelleted nuclei were washed with buffer A without Nonidet P-40, and resuspended in 40 μl of buffer B containing 25% (v/v) glycerol, 0.42M NaCl, 1.5 mM MgCl2, 0.2 mM EDTA, 0.5 mM dithiothreitol, and Complete™ protease inhibitor cocktail (Roche) in 20 mM HEPES, pH 7.9 for 30 min on ice. The lysates were centrifuged at 15,000×g for 15 min and the supernatants containing the nuclear proteins were stored at −70° C. until use. Ten μg of nuclear proteins was used for the electrophoretic mobility shift assay for detection of NF-κB DNA binding activities. DNA-protein binding reactions were carried out at room temperature for 20 min in 10 mM Trizma base (pH 7.9), 50 mM NaCl, 5 mM MgCl2, 1 mM EDTA, 1 mM dithiothreitol, 1 μg poly (dI-dC), 5% (v/v) glycerol, and approximately 0.3 pmol of NF-κB probe (Santa Cruz Biotech) labeled with DIG-ddUTP using terminal deoxynucleotidyl transferase (Roche). […]

[3] = system: primary cultured rat neocortical explants; conditions: cited from earlier work
[4] = system: ERK1/2; assay: ERK1/2 activation at the lesion epicenter following SCI; assay type: in vivo, rat
Experimental: The protein concentration of samples was determined with the detergent compatible protein assay reagent (Bio-Rad Laboratories, CA) using bovine serum albumin (BSA) as the standard. Sample was boiled for 3 min with 0.1 volumes of 10% β-mercaptoethanol and 0.5% bromophenol blue mix. Fifty μg of total cellular protein was resolved by electrophoresis on 8 or 12% polyacrylamide gels, electro-transferred to polyvinylidene difluoride (PVDF) filter and blocked with Tween 20 containing Tris-buffered saline (TBST; 10 mM Trizma base-pH 7.4, 1% Tween 20, and 150 mM NaCl) with 5% skim milk. After incubation with antiserum against iNOS (BD PharMingen, CA), rat GalT-2 (Abjent Inc., CA), H-Ras (Upstate Biotechnology, CA), GFAP (Santa Cruz Biotech, CA), or phospho-specific ERK1/2 (Cell signaling Tech Inc., MA), or pIκ-B (Signal Transduction), in PVDF buffer for 2 h at room temperature, the filters were washed 3 times with TBST buffer and then incubated with horseradish peroxidase conjugated anti-rabbit or mouse IgG for 1 h. The membranes were detected by autoradiography using ECL-plus (Amersham Pharmacia Biotech) after washing with TBST buffer.

[5] = system: primary cultured rat neocortical explants; conditions: cited from earlier work; remark: listed apart in the source
[6] = system: rat SCI model; assay: Histology (H&E) and myelin (LFB-PAS) of spinal cord sections, rat SCI model; assay type: in vivo
Description: Sprague-Dawley female rats (225-250 g weight) were purchased (Harlan laboratories, Durham, N.C.) for induction of SCI. All rats were given water and food pellets ad libitum and maintained in accordance with the ‘Guide for the Care and Use of Laboratory Animals’ of the US Department of Health and Human Services (National Institutes of Health, Bethesda, Md., USA). The inventors have used a clinically relevant weight-drop device for the induction of SCI in rats as described earlier (Gruner, 1992). Briefly, rats were anesthetized by intraperitoneal (i.p.) administration of ketamine (80 mg/kg) plus xylazine (10 mg/kg) followed by laminectomy at T12. While the spine was immobilized with a stereotactic device, injury (30 g/cm force) was induced by dropping a weight of 5 gm from a height of 6 cm onto an impounder gently placed on the spinal cord. Sham operated animals underwent laminectomy only. Upon recovery from anesthesia, animals were evaluated neurologically and monitored for food and water intake. However, no prophylactic antibiotics or analgesics were used in order to avoid their possible interactions with the experimental therapy of SCI.
Rats were anesthetized and sacrificed by decapitation.

[7] = system: GalT-2; assay: GalT-2 protein level by immunoblot after antisense transfection; assay type: cell-based, rat; conditions: 48 h after transfection, 200 nM oligo
Experimental: For iNOS protein, the cells were washed with cold Tris buffered saline (TBS; 20 mM Trizma base, and 137 mM NaCl, pH 7.5), lysed in 1×SDS sample loading buffer (62.5 mM Trizma base, 2% w/v SDS, 10% glycerol), following sonication and centrifugation at 15,000×g for 5 min, the supernatant was used for the iNOS western immunoblot assay. The protein concentration of samples was determined with the detergent compatible protein assay reagent (Bio-Rad Laboratories, CA) using bovine serum albumin (BSA) as the standard. Sample was boiled for 3 min with 0.1 volumes of 10% β-mercaptoethanol and 0.5% bromophenol blue mix. […] The membranes were detected by autoradiography using ECL-plus (Amersham Pharmacia Biotech) after washing with TBST buffer.
A 20-mer antisense oligonucleotide of the following sequence (5′-CGCTTGAGCGCAGACATCTT-3′, SEQ ID NO:1) targeted against rat lactosylceramide synthase (GalT-2) were synthesized by Integrated DNA Technology. […] Cells were counted and plated a day before transfection and the following day were treated with Oligofectamine (Invitrogen)-oligonucleotide complexes (200 nM oligo) under serum free conditions. 48 h following transfection, the protein levels of GalT-2 were analyzed using polyclonal antibodies raised against rat GalT-2 (Abjent Inc., CA). […]

For `CCCCCCCCCC(=O)NC(CN1CCOCC1)C(O)c1ccccc1.Cl` [PDMP, D-threo-1-Phenyl-2-decanoylamino-3-morpholino-1-propanol.HCl], the Solubility in water [1] is listed as “soluble in water”, the “NF-κB DNA binding activity” value ([2]; increasing doses of PDMP, LPS/IFNγ 45 min) is listed as “inhibited” and the Neurite outgrowth [3] is listed as “inhibited”. For the same compound, the “Activated ERK1/2, double immunofluorescence” value ([4]; 24 h following injury) was “significantly attenuated”, the “Chronic ERK1/2 activation (immunoblot, pERK/ERK)” value ([4]; PDMP 20 mg/kg post-SCI) was “effectively attenuates” and the GSL biosynthesis [5] was “inhibited”. For the same compound, the “Demyelination at the lesion epicenter” value ([6]; Day 2 and 3 post-SCI) was “reduced”, the “Tissue necrosis at the lesion epicenter” value ([6]; Day 2 and 3 post-SCI) was “reduced” and the “SCI induced white matter vacuolization and tissue necrosis” value ([6]; PDMP 20 mg/kg i.p. post-SCI, tissue analyzed 24 h post-SCI) was “markedly decreased”. For the same compound, the “Protection against tissue destruction” value ([6]; PDMP given 12 h post-SCI, tissue analyzed 24 h post-SCI) was “substantial amount of protection” and the “Demyelination (LFB staining)” value ([6]; PDMP treatment until 12 h post-SCI, 24 h post-SCI) was “attenuated”.

In the case of “AS GalT-2 oligonucleotides: 20-mer antisense oligonucleotide 5′-CGCTTGAGCGCAGACATCTT-3′, SEQ ID NO:1, against rat lactosylceramide synthase (GalT-2) (antisense CGCTTGAGCGCAGACATCTT; chemistry not given here)”, the GalT-2 protein levels [7] is reported as “diminished protein levels”.

With Lactosylceramide [LacCer] the “Reversal of PDMP-mediated inhibition of NF-κB DNA binding activity” value ([2]; exogenous LacCer) was “reversed”.
